Data on 13 molecules can be found in PubChem BioAssay AID2060909 (Molecular Pharmacology Branch, DTP, NCI, 2025).

Molecules are shown by their SMILES. Values joined by “and” are separate entries in the source; they are usually repeats but may differ in a detail not shown here. Equal values may be shown once.

The assay has as its system 362531-283-R-J2-PDC complex spheroid viability. Kind of assay: Anticancer human tumor 362531-283-R-J2-PDC patient-derived colon adenocarcinoma cell line growth inhibition [RAS]. The note with it: for viability, T/C: stronger effect = lower value. From the text: RAS pathway inhibitors in Combinations in Complex Spheroids
A high-throughput screen of multi-cell type tumor spheroids was designed to identify active combinations of RAS pathway inhibitors and targeted small molecules. Complex spheroids include a stromal component modeled by human endothelial cells (HUVEC) and fibroblasts modeled by human mesenchymal stem cells (MSCs). The concentration ranges selected for each drug and investigational agent were based upon clinically achievable concentrations if the clinical Cmax of the agent was known.
Compounds. The drugs and investigational agents: abemaciclib (NSC768073), cobimetinib (NSC768068), divarasib (GDC6063, NSC841802), docetaxel (NSC628503), GDC-1971 (RLY-1971, NSC841576), gemcitabine (NSC613327), inavolisib (NSC800729), ipatasertib (NSC767898), KB-0742 (NSC834161), MRTX-1133 (NSC836407), osimertinib (NSC779217), RMC-4630 (NSC839698), RMC-6236 (NSC851965), RMC-6291 (NSC852671), Ro-3306 (NSC812927), sapanisertib (NSC764658), SN-38 (NSC673596), staurosporine (NSC755774), SY5609 (NSC837396), and tovorafenib (DAY101, NSC766906), were obtained from the National Cancer Institute (NCI) Developmental Therapeutics Program Chemical Repository. The FDA-approved anticancer drug set is available from the NCI Developmental Therapeutics Program. […] The stock solutions were prepared in dimethyl sulfoxide (DMSO, Sigma-Aldrich, St. Louis, MO, cat. D2650) at 800-fold the tested concentration and stored at -70 degrees C prior to their use. All drugs and investigational agents were tested over a range starting from a high concentration at or near the clinical Cmax and decreasing in half-log increments. If the clinical Cmax for an agent had not been determined, the highest concentration tested was 10 microM.
Cell Culture. All cells were maintained in an incubator at 37 degrees C and 5% CO2 with 95% humidity. The PDC lines were cultured according to standard operating procedures established by the NCI PDMR. All PDCs were thawed and cultured in Matrigel-coated flasks prepared with a working solution of 1X Ham's F-12 nutrient mix, without supplementation (Invitrogen, Waltham, MA, cat. 11765054), 100 U/mL penicillin-streptomycin (Invitrogen, cat. 15140122), and 2.5% Matrigel (Corning Inc., Corning, NY, cat. 354248) for the first three passages. The 362531-283-R-J2-PDC and 782815-120-R-J1-PDC lines were cultured in 6C/Colon 1B media, which includes advanced DMEM/F-12 (Thermo Fisher Scientific, cat. 12634028), 10 mM HEPES (Thermo Fisher Scientific, cat. 15630080), 1X GlutaMAX supplement (Thermo Fisher Scientific, cat. 35050061), 0.1 mg/mL primocin (InvivoGen, San Diego, CA, cat. ant-pm-2), 10% defined fetal bovine serum, heat inactivated (HyClone Laboratories Inc., Logan, UT, cat. SH30070.03HI), 50% L-WRN conditioned media (ATCC, cat. CRL-3276), 1.25 mM N-Acetyl-L-cysteine (Sigma-Aldrich, cat. A9165), 10 mM nicotinamide (Sigma-Aldrich, cat. N0636), 1X B-27 supplement (Thermo Fisher Scientific, cat. 17504044), 1X N-2 supplement (Thermo Fisher Scientific, cat. 17502048), 50 ng/mL human EGF (Thermo Fisher Scientific, cat. PHG0311), and 10 microM Y-27632 dihydrochloride (Tocris Bioscience, cat. 1254). The K12877-001-R-J1-PDC line was cultured in 6I media, which includes all 6C/Colon 1B media plus 10 ng/mL human FGF-10 (PeproTech, cat. 100-26), 1 ng/mL human FGF-2 (PeproTech, cat. 100-18B), 1 µM prostaglandin E2 (Tocris Bioscience, cat. 2296), […] hydrocortisone (Sigma-Aldrich, cat. H4001), and […] bovine insulin (Sigma-Aldrich, cat. I6634). The K86415-001-R-J1-PDC line was cultured in 6D media, which includes all 6C/Colon 1B media components minus the L-WRN conditioned media. The 485176-168-R4-J1-PDC was cultured in PANC media, which includes all 6C/Colon 1B media plus 100 ng/mL human FGF-10 (PeproTech, cat. 100-26), 500 nM SB-431542 (Selleckchem, cat. S1067), and 10 nM gastrin (Tocris Bioscience, cat. 3006). […]

The mark [1] stands for this setting: compound alone, run of 07/15/2024.
Setting [2] is: compound alone, run of 07/09/2024.

The term viability, T/C denotes the result in the treated group divided by that in the control group, in per cent. Usually IC50 stands for the concentration that gives 50% inhibition.
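Note: spheroids exposed to the agents for 7 days before readout.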
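Throughout, for viability, T/C: luminescence viability as percent of DMSO vehicle control wells.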

As to `C#Cc1c(F)ccc2cc(O)cc(-c3ncc4c(N5CC6CCC(C5)N6)nc(OCC56CCCN5CC(F)C6)nc4c3F)c12` (centres undefined), the viability, T/C runs as follows: (compound 0.0316 µM) 99.9% [middle of 8 runs]; (compound 0.1 µM) 101% [middle of 8 runs]; (compound 0.316 µM) 94.8% [middle of 8 runs]; (compound 1 µM) 79.1% [middle of 8 runs]; (compound 10 µM) 54.6% [middle of 8 runs]. The IC50 under setting [1] is 6730 nM and > 10000 nM and 9190 nM.
As for `C=CC(=O)N1CCN(c2nc(OCC3CCCN3C)nc3c(F)c(-c4nc(N)cc(C)c4C(F)(F)F)c(Cl)cc23)C(C)C1` (centres undefined), the viability, T/C is, setting by setting: (compound 0.00316 µM) 104% [middle of 12 runs]; (compound 0.01 µM) 108% [middle of 12 runs]; (compound 0.0316 µM) 102% [middle of 12 runs]; (compound 0.1 µM) 102% [middle of 12 runs]; (compound 0.316 µM) 102% [middle of 12 runs]. Besides, the IC50 by setting is: under setting [1], more than 1000 nM; (curve of compound) more than 1000 nM.
For `C=CC(=O)Nc1cc(Nc2nccc(-c3cn(C)c4ccccc34)n2)c(OC)cc1N(C)CCN(C)C`, the viability, T/C by setting is: (compound 0.00316 µM) 98.8% [middle of 4 runs]; (compound 0.01 µM) 92.5% [middle of 4 runs]; (compound 0.0316 µM) 101% [middle of 4 runs]; (compound 0.1 µM) 101% [middle of 4 runs]; (compound 0.316 µM) 96.5% [middle of 4 runs]; (compound 1 µM) 85.1% [middle of 4 runs]. Besides, the 50% inhibitory concentration (IC50) (curve of compound) is more than 1000 nM.
Consider `CC(C)NCC(C(=O)N1CCN(c2ncnc3c2C(C)CC3O)CC1)c1ccc(Cl)cc1` (centres undefined), for which the viability, T/C by setting is: (compound 0.0316 µM) 103% [middle of 4 runs]; (compound 0.1 µM) 103% [middle of 4 runs]; (compound 0.316 µM) 103% [middle of 4 runs]; (compound 1 µM) 101% [middle of 4 runs]; (compound 3.16 µM) 98.5% and 102% (2×) and 98.2%; (compound 10 µM) 98.2% [middle of 4 runs]. Also, the IC50 (curve of compound) is more than 10000 nM.
Take `CC(C)n1nc(-c2ccc3oc(N)nc3c2)c2c(N)ncnc21`: the viability, T/C (compound 0.000316 µM) was 103% [middle of 4 runs]; the viability, T/C (compound 0.001 µM) was 99.1% [middle of 4 runs]; the viability, T/C (compound 0.00316 µM) was 101% [middle of 4 runs]; the viability, T/C (compound 0.0316 µM) was 63.5% [middle of 4 runs]. Further, for the setting “curve of compound”, the concentration for half-maximal inhibition (IC50) was 53.9 nM and > 100 nM and 75.8 nM.
With `CC(Nc1ccc2c(c1)OCCn1cc(N3C(=O)OCC3C(F)F)nc1-2)C(N)=O` (centres undefined), the viability, T/C was 96.9% [middle of 4 runs] (compound 0.0316 µM); 97.1% [middle of 4 runs] (compound 0.1 µM); 63.1% [middle of 4 runs] (compound 1 µM); 43.1% [middle of 4 runs] (compound 3.16 µM); 32.6% [middle of 4 runs] (compound 10 µM). Besides, the IC50 (curve of compound) was 1.77 µM [middle of 4 runs].
For the molecule `CC1(C)CCC(Nc2ncc(C(F)(F)F)c(-c3c[nH]c4c(P(C)(C)=O)c(C#N)ccc34)n2)CN1` (centres undefined), the viability, T/C reads like this: (compound 0.000949 µM) 104% [middle of 4 runs]; (compound 0.003 µM) 98.7% [middle of 4 runs]; (compound 0.00949 µM) 107% [middle of 4 runs]; (compound 0.03 µM) 101% [middle of 4 runs]; (compound 0.0949 µM) 104% [middle of 4 runs]; (compound 0.3 µM) 108% [middle of 4 runs]. Besides, the IC50 (curve of compound) was more than 300 nM.
On to `CCN1CCN(Cc2ccc(Nc3ncc(F)c(-c4cc(F)c5nc(C)n(C(C)C)c5c4)n3)nc2)CC1`, for which the viability, T/C is 100% (2×) and 99.6% and 106% (compound 0.00316 µM); 95.9% [middle of 4 runs] (compound 0.01 µM); 79.9% [middle of 4 runs] (compound 0.1 µM); 65.4% [middle of 4 runs] (compound 0.316 µM). The IC50 (curve of compound) was more than 1000 nM.
Take `CCc1c2c(nc3ccc(O)cc13)-c1cc3c(c(=O)n1C2)COC(=O)[C@]3(O)CC`: the viability, T/C was 92.4% [middle of 4 runs] (compound 0.000949 µM); 93.4% [middle of 4 runs] (compound 0.003 µM); 74.5% [middle of 4 runs] (compound 0.00949 µM); 61.8% [middle of 4 runs] (compound 0.03 µM); 30.2% [middle of 4 runs] (compound 0.0949 µM); 19.9% [middle of 4 runs] (compound 0.3 µM). For the same molecule, the IC50 (curve of compound) was 43.7 nM [middle of 4 runs].
Regarding `CCn1c(-c2cc(N3CCN(C)CC3)cnc2C(C)OC)c2c3cc(ccc31)-c1csc(n1)CC(NC(=O)C1CC1C)C(=O)N1CCCC(N1)C(=O)OCC(C)(C)C2` (centres undefined), the viability, T/C is, setting by setting: (compound 0.000949 µM) 99% [middle of 8 runs]; (compound 0.003 µM) 101% [middle of 8 runs]; (compound 0.00949 µM) 100% [middle of 8 runs]; (compound 0.03 µM) 99.5% [middle of 8 runs]; (compound 0.0949 µM) 82.8% [middle of 7 runs]; (compound 0.3 µM) 38.5% [middle of 8 runs]. In addition, the 50% inhibitory concentration (IC50) under setting [2] was 223 nM [middle of 8 runs].
`CCn1c(-c2cccnc2C(C)OC)c2c3cc(ccc31)N1CCOC(CC(NC(=O)C(C(C)C)N(C)C(=O)C3(F)CCN(C(=O)C#CC(C)(C)N(C)C)CC3)C(=O)N3CCCC(N3)C(=O)OCC(C)(C)C2)C1` (centres undefined): the viability, T/C is 103% [middle of 8 runs] (compound 0.000949 µM); 102% [middle of 8 runs] (compound 0.003 µM); 107% [middle of 8 runs] (compound 0.00949 µM); 103% [middle of 8 runs] (compound 0.03 µM); 104% [middle of 8 runs] (compound 0.0949 µM); 100% [middle of 8 runs] (compound 0.3 µM). Moreover, under setting [2], the IC50 is more than 300 nM.
Regarding `Nc1ccn(C2OC(CO)C(O)C2(F)F)c(=O)n1` (centres undefined), the viability, T/C by setting is: (compound 0.00316 µM) 93.5% [middle of 4 runs]; (compound 0.01 µM) 95.2% [middle of 4 runs]; (compound 0.0316 µM) 84.4% [middle of 4 runs]; (compound 0.1 µM) 70.5% [middle of 4 runs]; (compound 0.316 µM) 21.9% [middle of 4 runs]; (compound 1 µM) 26.6% [middle of 4 runs]. The IC50 (curve of compound) is 167 nM [middle of 4 runs].
As for `O=C(c1ccc(F)c(F)c1Nc1ccc(I)cc1F)N1CC(O)([C@@H]2CCCCN2)C1`, the viability, T/C is 100% [middle of 4 runs] (compound 0.00316 µM); 94.8% [middle of 4 runs] (compound 0.01 µM); 90.7% [middle of 4 runs] (compound 0.1 µM); 64.7% [middle of 4 runs] (compound 0.316 µM); 19% [middle of 4 runs] (compound 1 µM). Besides, the IC50 (curve of compound) is 507 nM [middle of 4 runs].
